Source: article PMC7503500, “A Structure-Activity Relationship Comparison of Imidazodiazepines Binding at Kappa, Mu, and Delta Opioid Receptors and the GABAA Receptor” (Molecules, 2020)
Values joined by “and” are separate entries in the source; they are usually repeats but may differ in a detail not shown here. Equal entries are not always repeated. Where two headings read alike, the source gives them in different places.

What was measured:
human KOR = target: T1, human KOR (Homo sapiens, UniProt P41145); experiment: cell-based
T1 construct: expressed in transfected cells; host or cells: HEK293T

κ opioid receptor (KOR) = κ opioid receptor (KOR) (Homo sapiens, UniProt P41145); experiment: Radioligand competition binding, KOR ([3H]-U69593), HEK293 cell homogenates; conditions: for inhibition at 10 µM: read-out: KOR % (percent inhibition), at 10,000 nM; for inhibition at 10 µM / KOR % (percent inhibition): [3H]-U69593; for KOR % (percent inhibition): at 10,000 nM
δ opioid receptor (DOR) = δ opioid receptor (DOR) (Homo sapiens, UniProt P41143); experiment: Radioligand competition binding, DOR ([3H]-DADLE), HEK293 cell homogenates; conditions: for inhibition at 10 µM: read-out: DOR % (percent inhibition), at 10,000 nM; for DOR % (percent inhibition): at 10,000 nM
µ opioid receptor (MOR) = µ opioid receptor (MOR) (Homo sapiens, UniProt P35372); experiment: Radioligand competition binding, MOR ([3H]-DAMGO), HEK293 cell homogenates; conditions: for inhibition at 10 µM: read-out: MOR % (percent inhibition), at 10,000 nM; for inhibition at 10 µM / MOR % (percent inhibition): [3H]-DAMGO; for MOR % (percent inhibition): at 10,000 nM
[1] = tested on: synaptic benzodiazepine-sensitive receptors (BZR), GABAAR; experiment: 3H-flunitrazepam binding, rat brain homogenate; conditions: for BZR % (percent inhibition): at 10,000 nM; for Ki: read-out: BZR (Ki)
activated microglia = tested on: activated microglia; design: method as in PMID 32511908; conditions: reversed by KOR antagonist norbinaltorphimine; cited from earlier work
[2] = design: method as in PMID 32511908; conditions: cited from earlier work
[3] = design: method as in PMID 32511908; conditions: both phases; cited from earlier work
[4] = read-out: KOR (Ki), [3H]-U69593, HEK293 homogenates

| SMILES | inhibition at 10 µM (κ opioid receptor (KOR)) [%] | inhibition at 10 µM (δ opioid receptor (DOR)) [%] | inhibition at 10 µM (µ opioid receptor (MOR)) [%] | BZR % (percent inhibition) [1] [%] | Ki [1] [nM] | MOR % (percent inhibition) (µ opioid receptor (MOR)) [%] | further results |
| --- | --- | --- | --- | --- | --- | --- | --- |
| C#Cc1ccc2c(c1)C(c1ccccc1F)=N[C@@H](C)c1c(C(=O)OC(C)(C)C)ncn1-2 [GL-I-30] | 95 | 7 | 54 | 96 | 177 | – | Efficacy in comparison to full agonist salvinorin A (human KOR; BRET GαoA recruitment): 100%; EC50 (human KOR; BRET, n = 24, mean and SEM, read-out: EC50, recruitment of GαoA protein to KOR): 32 nM and 32.3 nM; Ki (κ opioid receptor (KOR)): 27 nM; Selectivity in respect to BZR binding (κ opioid receptor (KOR); KOR vs BZR Ki): 6.5 fold; Opioid receptor selectivity in comparison to MOR (κ opioid receptor (KOR); KOR vs MOR Ki): 68 fold; Ki (µ opioid receptor (MOR)): 1850 nM |
| CCc1noc(-c2ncn3c2[C@@H](C)N=C(c2ccccc2F)c2cc(C4CC4)ccc2-3)n1 [GL-IV-03] | – | – | – | 65 | – | 25 | Production of nitric oxide (NO) by activated microglia (activated microglia): reduced the production of nitric oxide (NO); KOR % (percent inhibition) (κ opioid receptor (KOR)): 91%; Ki (κ opioid receptor (KOR); [4]): 232 nM; Impairment of sensorimotor coordination [2]: without inducing impairment of sensorimotor coordination; DOR % (percent inhibition) (δ opioid receptor (DOR)): 67%; Agitation response in the formalin nociception test [3]: alleviated the agitation response in both phases |
| C#Cc1ccc2c(c1)C(c1ccccn1)=NCc1c(-c3nc(CC)no3)ncn1-2 [MP-III-080] | 47 | 0 | 0 | 88 | 303 | – | – |
| C#Cc1ccc2c(c1)C(c1ccccn1)=NCc1c(-c3nc(C)no3)ncn1-2 [MP-III-085] | 40 | 0 | 0 | 82 | 357 | – | – |
| C#Cc1ccc2c(c1)C(c1ccccc1F)=N[C@H](C)c1c(-c3nc(C)no3)ncn1-2 [MP-IV-004] | – | – | – | 63 | 1080 | 7 | KOR % (percent inhibition) (κ opioid receptor (KOR)): 86%; Ki (κ opioid receptor (KOR); [4]): 444 nM; DOR % (percent inhibition) (δ opioid receptor (DOR)): 10% |
| C#Cc1ccc2c(c1)C(c1ccccc1F)=N[C@H](C)c1c(-c3nc(C(C)C)no3)ncn1-2 [MP-IV-010] | – | – | – | 64 | 814 | 33 | KOR % (percent inhibition) (κ opioid receptor (KOR)): 94%; Ki (κ opioid receptor (KOR); [4]): 145 nM; DOR % (percent inhibition) (δ opioid receptor (DOR)): 5% |
| C#Cc1ccc2c(c1)C(c1ccccc1F)=N[C@H](C)c1c(C(=O)O)ncn1-2 [SH-053-2′F-R-CH3-Acid] | 16 | 0 | 0 | 93 | 37 | – | – |
| C#Cc1ccc2c(c1)C(c1ccccc1F)=N[C@H](C)c1c(C(=O)OCC)ncn1-2 [SH-053-2′F-R-CH3] | 89 | 32 | 28 | 85 | 379 | – | Ki (κ opioid receptor (KOR)): 240 nM |
| C#Cc1ccc2c(c1)C(c1ccccc1F)=N[C@@H](C)c1c(C(=O)O)ncn1-2 [SH-053-2′F-S-CH3-Acid] | 20 | 18 | 0 | 93 | 29 | – | – |
| C#Cc1ccc2c(c1)C(c1ccccc1F)=N[C@@H](C)c1c(C(=O)OCC)ncn1-2 [SH-053-2′F-S-CH3] | 93 | 36 | 7 | 92 | 111 | – | Ki (κ opioid receptor (KOR)): 90 nM |
| CCOC(=O)c1ncn2c1[C@@H](C)N=C(c1ccccc1F)c1cc(Br)ccc1-2 [SH-I-047] | 82 | 0 | – | 84 | 238 | 16 | – |
| CCOC(=O)c1ncn2c1[C@H](C)N=C(c1ccccc1F)c1cc(Br)ccc1-2 [SH-I-048B] | – | – | – | 61 | 96 | 0 | KOR % (percent inhibition) (κ opioid receptor (KOR)): 95%; DOR % (percent inhibition) (δ opioid receptor (DOR)): 0% |
| Fc1ccccc1C1=NCc2c(-c3cnco3)ncn2-c2ccc(Br)cc21 [SH-I-85] | 91 | 33 | 16 | 99 | 11 | – | Ki (κ opioid receptor (KOR)): 162 nM |
| C#Cc1ccc2c(c1)C(c1ccccn1)=NCc1c(C(=O)O)ncn1-2 [SR-II-54] | 9 | 1 | 8 | 80 | 69 | – | – |
